Measured values: patent US9605000B2, “Spiro azetidine isoxazole derivatives and their use as SSTR antagonists” (Takeda Pharmaceutical Company Limited, priority 2013, dated 2017)

The compounds below were run against T1, human SSTR5 (Homo sapiens, UniProt P35346) (assay: Human SSTR5 antagonist activity using intracellular cAMP concentration as indicator (somatostatin 14, Test Example 1)). Settings: 1 μM test compound; 1 nM somatostatin 14 and 0.3 μM forskolin; CHO (dhfr-) cells expressing human SSTR5; HTRF cAMP.
T1 construct: expressed in transfected cells
T1 sequence (P35346 whole entry): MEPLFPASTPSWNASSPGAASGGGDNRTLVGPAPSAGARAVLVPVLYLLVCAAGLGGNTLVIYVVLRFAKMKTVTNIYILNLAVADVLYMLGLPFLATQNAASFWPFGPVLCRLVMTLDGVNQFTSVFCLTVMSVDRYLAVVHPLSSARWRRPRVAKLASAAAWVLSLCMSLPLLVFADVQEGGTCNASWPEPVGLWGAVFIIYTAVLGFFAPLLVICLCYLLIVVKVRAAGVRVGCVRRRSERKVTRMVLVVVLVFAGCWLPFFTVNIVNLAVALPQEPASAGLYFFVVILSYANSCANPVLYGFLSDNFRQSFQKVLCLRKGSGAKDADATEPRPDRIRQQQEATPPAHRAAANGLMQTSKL
Assay type: cell-based
Experimental: (§1) Evaluation of Human SSTR5 Antagonist Activity Using an Intracellular cAMP Concentration as an Indicator
Measurement of the intracellular cAMP concentration was performed using a HTRF cAMP dynamic 2 kit (manufactured by Cisbio). A test compound which was diluted with an assay buffer (5 mM HEPES (pH 7.5) (manufactured by Invitrogen Corp.), 0.1% Fatty-acid free BSA (manufactured by Sigma-Aldrich, Inc.), HESS (manufactured by Invitrogen Corp.) containing 500 μM IBMX (manufactured by Wako Pure Chemical Industries, Ltd) was added by 2 μL/well to a 384 well white plate (manufactured by Greiner) such that a final concentration become 1 μM. A frozen stock, which was stably expressed dihydrofolate reductase-deficient (dhfr-) CHO cells in which human SSTR5 gene (Accession No. NM001053), was melted in a thermostatic chamber at 37° C., and it was suspended on a medium of subculture (medium prepared from MEM alpha (Nikken Biomedical Institute Ltd.), 10% dialyzed serum (manufactured by Gemini Co., Ltd.) and 50 μg/mL gentamicin (manufactured by Invitrogen Corp.). After centrifuging the cell suspension, the cell suspension was resuspended using the assay buffer, and the resultant was added to each well by 2 μL/well to be 3760 cells/well. After a test compound and cells were mixed, the resultant was incubated for 15 minutes. An assay buffer which contains 1 nM of somatostatin 14 (manufactured by PEPTIDE INSTITUTE, INC.) and 0.3 μM of forskolin (manufactured by Wako Pure Chemical Industries, Ltd) as a final concentration was added by […], and incubation was performed for 30 minutes at room temperature. Each of cAMP-d2 and anti-cAMP-cryptate was added by 3 μL/well, it was allowed to stand for 60 minutes at room temperature, and FRET (Fluorescence resonance energy transfer) intensity was measured using Multi-label reader Envision (manufactured by Perkin Elmer Inc.). Using the calibration curve prepared from the FRET intensity of well groups in which cAMP as arbitrary concentration was added to any assay buffer, FRET intensity of wells in which a test compound group was added was converted into cAMP concentration. Inhibitory activity of compounds was calculated using the following equation. Inhibitory activity (%)=(C−B)/(A−B)×100 A: cAMP concentration calculated from wells in which 0.3 μM of forskolin is added B: cAMP concentration calculated from wells in which 0.3 μM of forskolin and 1 nM of somatostatin 14 are added C: cAMP concentration wells in which 0.3 μM of forskolin, 1 nM of somatostatin 14 and 1 μM of test compound are added
Inhibition rates (%) are described in Table 2 with respect to SSTR5 in concentration of 1 μM of a test compound.

Compound	Inhibition rate (%) with respect to SSTR5 in concentration of 1 μM
CCOc1cc(CN2CC3(CC(N4CCC(C)(C(=O)O)CC4)=NO3)C2)cc(C2CC2(F)F)c1-c1ccc(F)cc1 (stereo not drawn) [Example 172, 1-(2-((2-(2,2-difluorocyclopropyl)-6-ethoxy-4′-fluorobiphenyl-4-yl)methyl)-5-oxa-2,6-diazaspiro[3.4]oct-6-en-7-yl)-4-methylpiperidine-4-carboxylic acid]	91%

Same assay, conditions: 1 μM test compound; 1 nM somatostatin 14 and 0.3 μM forskolin; CHO (dhfr-) cells expressing human SSTR5; HTRF cAMP; read-out: Inhibition rate (%) with respect to SSTR5 in concentration of 1 μM

Compound	inhibition at 1 µM
CCOc1cc(CN2CC3(CC(N4CCC(CC)(C(=O)O)CC4)=NO3)C2)cc(C2CC2)c1-c1ccc(F)cc1 [Example 174, 1-(2-((2-Cyclopropyl-6-ethoxy-4′-fluorobiphenyl-4-yl)methyl)-5-oxa-2,6-diazaspiro[3.4]oct-6-en-7-yl)-4-ethylpiperidine-4-carboxylic acid]	111%
CCC1(C(=O)O)CCN(C2=NOC3(C2)CN(Cc2cc(C4CC4)c(-c4ccc(F)cc4)cc2OC)C3)CC1 [Example 192, 1-(2-((2-Cyclopropyl-4′-fluoro-5-methoxybiphenyl-4-yl)methyl)-5-oxa-2,6-diazaspiro[3.4]oct-6-en-7-yl)-4-ethylpiperidine-4-carboxylic acid]	117%
CCCOc1cc(CN2CC3(CC([C@H]4CC[C@H](C(=O)O)CC4)=NO3)C2)cc(C2CC2)c1-c1ccc(F)cc1 [Example 208, Trans-4-(2-((2-Cyclopropyl-4′-fluoro-6-propoxybiphenyl-4-yl)methyl)-5-oxa-2,6-diazaspiro[3.4]oct-6-en-7-yl)cyclohexane carboxylic acid]	85%
CCOc1cc(CN2CC3(CC([C@H]4CC[C@H](C(=O)O)CC4)=NO3)C2)cc(C2CC2)c1-c1ccc(F)cc1 [Example 225, Trans-4-(2-((2-Cyclopropyl-6-ethoxy-4′-fluorobiphenyl-4-yl)methyl)-5-oxa-2,6-diazaspiro[3.4]oct-6-en-7-yl)cyclohexanecarboxylic acid]	97%
COc1cc(C2CC(F)(F)C2)c(C2CC2)cc1CN1CC2(CC(N3CCC(C)(C(=O)O)CC3)=NO2)C1 [Example 185]	85%
CCOc1cc(-c2ccc(F)cc2)c(C2CC2)cc1CN1CC2(CC(N3CCC(C(=O)O)CC3)=NO2)C1 [Example 215, 1-(2-((2-Cyclopropyl-5-ethoxy-4′-fluorobiphenyl-4-yl)methyl)-5-oxa-2,6-diazaspiro[3.4]oct-6-en-7-yl)piperidine-4-carboxylic acid]	111%
CCCOc1cc(CN2CC3(CC(N4CCC(C)(C(=O)O)CC4)=NO3)C2)cc(C2CC2)c1-c1ccc(F)cc1F [Example 169, 1-(2-((2-Cyclopropyl-2′,4′-difluoro-6-propoxybiphenyl-4-yl)methyl)-5-oxa-2,6-diazaspiro[3.4]oct-6-en-7-yl)-4-methylpiperidine-4-carboxylic acid]	91%
CCOc1nc(CN2CC3(CC(N4CCC(C)(C(=O)O)CC4)=NO3)C2)cc(C2CC2)c1-c1ccc(F)cc1 [Example 210, 1-(2-((4-Cyclopropyl-6-ethoxy-5-(4-fluorophenyl)pyridin-2-yl)methyl)-5-oxa-2,6-diazaspiro[3.4]oct-6-en-7-yl)-4-methylpiperidine-4-carboxylic acid]	116%
CCOc1cc(CN2CC3(CC(N4CCC(C)(C(=O)O)CC4)=NO3)C2C)cc(OCC)c1-c1ccc(F)cc1 (stereo not drawn) [Example 217, 1-(2-((2,6-Diethoxy-4′-fluorobiphenyl-4-yl)methyl)-1-methyl-5-oxa-2,6-diazaspiro[3.4]oct-6-en-7-yl)-4-methylpiperidine-4-carboxylic acid]	95%
CCOC(=O)C1(C)CCN(C2=NOC3(C2)CN(Cc2cc(OCC)c(-c4ccc(F)cc4)c(OCC)c2)C3)CC1 [Example 7, Ethyl 1-(2-((2,6-diethoxy-4′-fluorobiphenyl-4-yl)methyl)-5-oxa-2,6-diazaspiro[3.4]oct-6-en-7-yl)-4-methylpiperidine-4-carboxylate]	62%
CC1(C(=O)O)CCN(C2=NOC3(C2)CN(Cc2cc(OCC4CC4)c(-c4ccc(F)cc4)c(C4CC4)c2)C3)CC1 [Example 93, 1-(2-((2-Cyclopropyl-6-(cyclopropylmethoxy)-4′-fluorobiphenyl-4-yl)methyl)-5-oxa-2,6-diazaspiro[3.4]oct-6-en-7-yl)-4-methylpiperidine-4-carboxylic acid]	96%
CCOc1nc(-c2ccc(F)cc2)c(C2CC2)cc1CN1CC2(CC(N3CCC(C)(C(=O)O)CC3)=NO2)C1 [Example 202, 1-(2-((5-Cyclopropyl-2-ethoxy-6-(4-fluorophenyl)pyridin-3-yl)methyl)-5-oxa-2,6-diazaspiro[3.4]oct-6-en-7-yl)-4-methylpiperidine-4-carboxylic acid]	101%
CCOc1cc(CN2CC3(CC(N4CCC(C)(C(=O)O)CC4)=NO3)C2)cc(C2CC2)c1N1CCCCC1 [Example 164]	94%
CCOc1cc(CN2CC3(CC(N4CCC(C)(C(=O)O)CC4)=NO3)C2)cc(C2CCC2)c1-c1ccc(F)cc1 [Example 107, 1-(2-((2-Cyclobutyl-6-ethoxy-4′-fluorobiphenyl-4-yl)methyl)-5-oxa-2,6-diazaspiro[3.4]oct-6-en-7-yl)-4-methylpiperidine-4-carboxylic acid]	111%
CCCOc1cc(CN2CC3(CC(N4CCC(C)(C(=O)O)CC4)=NO3)C2)cc(C2CC2)c1-c1ccc(F)cc1 [Example 94, 1-(2-((2-Cyclopropyl-4′-fluoro-6-propoxybiphenyl-4-yl)methyl)-5-oxa-2,6-diazaspiro[3.4]oct-6-en-7-yl)-4-methylpiperidine-4-carboxylic acid]	88%

Each compound was assayed against T1, human SSTR5 (assay: Human SSTR5 antagonist activity using intracellular cAMP concentration as indicator (somatostatin 28, Test Example 2)). Settings: 1 μM test compound; somatostatin 28 and 0.3 μM forskolin; CHO (dhfr-) cells expressing human SSTR5; HTRF cAMP; read-out: Inhibition rate (%) with respect to SSTR5 in concentration of 1 μM.
Assay type: cell-based
Experimental: as §1
Measurement of the intracellular cAMP concentration was performed using a HTRF cAMP dynamic 2 kit (manufactured by Cisbio). A test compound which was diluted with an assay buffer (5 mM HEPES (pH 7.5) (manufactured by Invitrogen Corp.), 0.1% fatty-acid free BSA (manufactured by Sigma-Aldrich, Inc.), HBSS (manufactured by Invitrogen Corp.) containing 500 μM IBMX (manufactured by Wako Pure Chemical Industries, Ltd) was added by 2 μL/well to a 384 well white plate (manufactured by Greiner) such that a final concentration become 1 μM. A frozen stock, which was stably expressed dihydrofolate reductase-deficient CHO (dhfr-) cells in which human SSTR5 gene (Accession No. NM001053) was melted in a thermostatic chamber at 37° C., and it was suspended on a medium of subculture (medium prepared from MEM alpha (manufactured by Wako Pure Chemical Industries, Ltd.), 10% dialyzed serum (manufacture by Gemini Co., Ltd.) and 50 μg/mL gentamicin (manufactured by Invitrogen Corp.). After centrifuging the cell suspension, the cell suspension was resuspended using the assay buffer, and the resultant was added to each well by 2 μL/well to be 4000 cells/well. After a test compound and cells were incubated for 15 minutes. An assay buffer which contains 0.1 nM of somatostatin 28 (manufactured by Toray Research Center) and 0.3 μM of forskolin (manufactured by Wako Pure Chemical Industries, Ltd) as a final concentration was added by […], and incubation was performed for 30 minutes at room temperature. Each of cAMP-d2 and anti-cAMP-cryptate was added by 3 μL/well, it was allowed to stand for 60 minutes at room temperature, and FRET (Fluorescence resonance energy transfer) intensity was measured using Multi-label reader Envision (manufactured by Perkin Elmer Inc.). Using the calibration curve prepared from the FRET intensity of well groups in which cAMP as arbitrary concentration was added to an assay buffer, FRET intensity of wells in which a test compound group was added was converted into cAMP concentration. Inhibitory activity of compounds was calculated using the following equation. Inhibitory activity (%)=(C−B)/(A−B)×100 A: cAMP concentration calculated from wells in which 0.3 μM of forskolin is added B: cAMP concentration calculated from wells in which 0.3 μM of forskolin and 1 nM of somatostatin 28 are added C: cAMP concentration wells in which 0.3 μM of forskolin, 1 nM of somatostatin 28 and 1 μM of test compound are added
Inhibition rates (%) are described in Table 3 with respect to SSTR5 in concentration of 1 μM of a test compound.

Compound	inhibition at 1 µM
CC(C)Oc1c(CN2CC3(CC(N4CCC(C)(C(=O)O)CC4)=NO3)C2)cc(C2CC2)c(C2CC2)c1F [Example 256, 1-(2-(4,5-Dicyclopropyl-3-fluoro-2-isopropoxybenzyl)-5-oxa-2,6-diazaspiro[3.4]oct-6-en-7-yl)-4-methylpiperidine-4-carboxylic acid]	121%
COc1c(CN2CC3(CC(N4CCC(C(=O)O)CC4)=NO3)C2)cc(C2CC2)c(-c2ccc(F)cc2)c1F [Example 266, 1-(2-((6-Cyclopropyl-2,4′-difluoro-3-methoxybiphenyl-4-yl)methyl)-5-oxa-2,6-diazaspiro[3.4]oct-6-en-7-yl)piperidine-4-carboxylic acid]	88%
